Data on 14 compounds can be found in ChEMBL document CHEMBL1131492 (J Med Chem, 1998).

For orientation: IC50 means the midpoint of a concentration-inhibition curve. Low values mean inhibition by little substance, high ones a need for much substance.

Assay [1] has as its target T1, Sodium-dependent dopamine transporter (Rattus norvegicus, UniProt P23977). The assay is described as follows: Inhibition [3H]DA uptake in rat striatal synaptosomes. It is filed as functional, subcellular, Brain.
Assay [2] concerns the target Sodium-dependent dopamine transporter (Rattus norvegicus) (UniProt P23977). The assay can be described thus: Potency ratio for Cocaine receptor (IC50 cocaine /IC50 compound).
Assay [3] concerns the target T1, Sodium-dependent dopamine transporter. The assay is described as follows: Inhibition [3H]-cocaine binding to Cocaine receptor in rat striatal membranes. It is filed as cell membranes.
Assay [4] has as its target Sodium-dependent dopamine transporter (Rattus norvegicus) (UniProt P23977). The assay is described as follows: Value is difference between the cocaine binding and DA uptake.
Assay [5] shares this target. The assay can be described thus: Ability to inhibit binding of [3H]cocaine to Cocaine receptor in rat brain. It is filed as tissue-based.
The target is the same in assay [6]. The assay can be described thus: Dopamine (DA) uptake. The assay is classed as functional.

Sequence of Sodium-dependent dopamine transporter (Rattus norvegicus) (P23977 whole entry): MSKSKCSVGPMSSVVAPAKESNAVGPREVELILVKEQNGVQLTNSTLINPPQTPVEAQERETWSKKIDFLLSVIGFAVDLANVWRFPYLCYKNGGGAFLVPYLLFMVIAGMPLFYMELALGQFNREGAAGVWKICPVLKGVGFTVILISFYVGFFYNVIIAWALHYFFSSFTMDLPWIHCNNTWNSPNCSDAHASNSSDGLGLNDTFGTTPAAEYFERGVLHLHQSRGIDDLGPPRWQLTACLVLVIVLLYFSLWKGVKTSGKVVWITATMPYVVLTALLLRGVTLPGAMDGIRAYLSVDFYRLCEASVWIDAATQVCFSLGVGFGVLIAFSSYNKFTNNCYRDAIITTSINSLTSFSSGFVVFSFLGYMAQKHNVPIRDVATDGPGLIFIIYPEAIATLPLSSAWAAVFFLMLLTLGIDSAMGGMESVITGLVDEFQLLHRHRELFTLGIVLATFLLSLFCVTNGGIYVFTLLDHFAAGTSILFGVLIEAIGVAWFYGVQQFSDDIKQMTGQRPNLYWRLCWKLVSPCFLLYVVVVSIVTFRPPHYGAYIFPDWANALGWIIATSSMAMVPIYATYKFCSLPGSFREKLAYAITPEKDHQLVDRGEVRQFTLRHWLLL
T1 sequence (P23977 whole entry): as above

Regarding `COC(=O)[C@@H]1C2CC[C@H](C[C@H]1c1ccc(-c3ccccc3)cc1)N2C`, the half-maximal inhibitory concentration (IC50) in assay [1] was determined as 29.4 nM; in assay [3], 10.3 nM. Moreover, the Log potency ratio was 0.99 in assay [2], 0.14 in assay [4], 0.9 in assay [5] and 0.85 in assay [6].
Regarding `COC(=O)C1C(c2ccc(N)cc2)CC2CCC1N2C` (centres undefined), the Log potency ratio in assay [2] was -0.14; in assay [4] it was -0.32; in assay [5], 2.58; in assay [6] it was 0.18.
For the compound `COC(=O)C1C(CCCc2ccccc2)CC2CCC1N2C` (centres undefined), the IC50 was 2680 nM in assay [1] and 344 nM in assay [3]. The Log potency ratio was -0.53 in assay [2], 0.58 in assay [4], -1.84 in assay [5] and -1.11 in assay [6].
With `COC(=O)C1C(Cc2ccccc2)CC2CCC1N2C` (centres undefined), it took 1020 nM to reach half-maximal inhibition in assay [1] (IC50). That is a single-digit micromolar value.
Regarding `COC(=O)[C@@H]1C2CC[C@H](C[C@@H]1c1ccccc1)N2C`, the results for the Log potency ratio in assay [2], in assay [4] and in assay [6] were 0.53, -0.13 and 0.66, respectively.
On to `COC(=O)[C@@H]1C2CC[C@H](C[C@H]1OC(=O)c1ccc3ccccc3c1)N2C`, for which the values for the IC50 in assay [1] and in assay [3] were 813 nM and 327 nM, respectively. The Log potency ratio in assay [2] was -0.51; in assay [4] it was 0.08; in assay [5] it was 0.07; in assay [6] it was -0.59.
Consider `COC(=O)[C@H]1[C@@H](c2ccc(F)cc2)C[C@H]2CC[C@H]1N2C`, for which the Log potency ratio in assay [2] is 0.59; in assay [4], -0.35; in assay [5] it was -0.49; in assay [6] it was 0.94.
Take `COC(=O)C1C(Cc2ccc3ccccc3c2)CC2CCC1N2C` (centres undefined): half-maximal inhibition in assay [1] (IC50) was put at 1350 nM.
For `COC(=O)[C@@H]1C2CC[C@H](C[C@H]1/C=C/c1ccccc1)N2C`, the IC50 in assay [1] came to 5.88 nM; in assay [3], 2.1 nM. In addition, the Log potency ratio in assay [2] was 1.68; in assay [4] it was 0.13; in assay [5], 0.48; in assay [6], 1.55.
Consider `COC(=O)C1C(c2ccc([N+](=O)[O-])cc2)CC2CCC1N2C` (centres undefined), for which the Log potency ratio in assay [2] is 0.006; in assay [4] it was -0.134; in assay [5], 1.48.
As for `COC(=O)[C@@H]1C2CC[C@H](C[C@H]1CCc1ccccc1)N2C`, the IC50 in assay [1] worked out at 70.5 nM; in assay [3] it was 9.94 nM. Also, the Log potency ratio in assay [2] was 1.01; in assay [4], 0.54; in assay [5] it was -0.77; in assay [6], 0.47.
On to `COC(=O)[C@H]1C2CC[C@H](C[C@H]1c1ccc3ccccc3c1)N2C`, for which the values for the IC50 in assay [1] and in assay [3] were 3.53 nM and 3.32 nM, respectively. For the same compound, the Log potency ratio in assay [2] is 1.48; in assay [4], -0.29; in assay [5], 1.66; in assay [6], 1.77.
As to `COC(=O)C1C(OC(=O)c2cccc3ccccc23)CC2CCC1N2C` (centres undefined), the results for the IC50 in assay [1] and in assay [3] were 1190 nM and 742 nM, respectively. The Log potency ratio is -0.87 in assay [2], -0.11 in assay [4], 0.01 in assay [5] and -0.76 in assay [6].
As for `C=C(c1ccccc1)C1CC2CCC(C1C(=O)OC)N2C` (centres undefined), the IC50 in assay [1] turned out to be 138 nM; in assay [3] it was 71.6 nM. In addition, the Log potency ratio in assay [2] is 0.15; in assay [4], -0.03; in assay [5], -0.83; in assay [6], 0.18.
